Assay results published in patent US6355673B1, “Substituted diaminocarboxylic acids” (Aventis Pharma Deutschland GmbH, priority 1997, dated 2002).

Columns and labels:
stromelysin (MMP-3) = molecular target: T1, stromelysin (MMP-3) (Homo sapiens, UniProt P08254); test: Enzyme inhibition of the catalytic domain of human stromelysin (fluorogenic substrate); type: biochemical; details: 15 min preincubation, pH=6.5, fluorescence 328 nm (ex)/393 nm (em)
T1 construct: enzymatic activity of the catalytic domains of human stromelysin and of neutrophil collagenase; made in house
Experimental: (§1) Preparation and determination of the enzymatic activity of the catalytic domains of human stromelysin and of neutrophil collagenase.
(§2) The enzymes stromelysin (MMP-3) and neutrophil collagenase (MMP-8) were prepared according to Ye et al. (Biochemistry; 31 (1992) pages 11231-11235). To measure the enzyme activity or the enzyme inhibitor action, 70 μl of buffer solution and 10 μl of enzyme solution are incubated for 15 min with 10 μl of a 10% strength (v/v) aqueous dimethyl sulfoxide solution, which optionally contains the enzyme inhibitor. After addition of 10 μl of a 10% strength (v/v) aqueous dimethyl sulfoxide solution which contains 1 mil/L of the substrates, the enzyme reaction is monitored by fluorescence spectroscopy (328 nm (ex)/393 nm(em)). The enzyme activity is shown as the extinction increase/min. The IC50 values listed in Table 2 are determined as those inhibitor concentrations which in each case lead to a 50% inhibition of the enzyme.
(§3) The buffer solution contains 0.05% Brij (Sigma, Deisenhofen, Germany) and also 0.1 mol/L tris/HCl, 0.1 mol/L NaCl, 0.01 mol/L CaCl2 and 0.1 mol/L piperazine-N,N′-bis(2-ethanesulfonic acid) (pH=6.5). The enzyme solution contains 5 μg/ml of one of the enzyme domains prepared according to Ye et al. The substrate solution contains 1 mil/L of the fluorogenic substrate (7-methoxycoumarin-4-yl)acetyl-Pro-Leu-Gly-Leu-3-(2′,4′-dinitrophenyl)-L-2,3-diaminopropionyl-Ala-Arg-NH2 (Bachem, Heidelberg, Germany).

[1] = molecular target: T2, neutrophil collagenase (MMP-8) (Homo sapiens, UniProt P22894); test: Enzyme inhibition of the catalytic domain of neutrophil collagenase (fluorogenic substrate); type: biochemical; details: 15 min preincubation, pH=6.5, fluorescence 328 nm (ex)/393 nm (em)
T2 construct: enzymatic activity of the catalytic domains of human stromelysin and of neutrophil collagenase; made in house
Experimental: as §1, §2, §3

T1 sequence (P08254 100-272 limits assumed): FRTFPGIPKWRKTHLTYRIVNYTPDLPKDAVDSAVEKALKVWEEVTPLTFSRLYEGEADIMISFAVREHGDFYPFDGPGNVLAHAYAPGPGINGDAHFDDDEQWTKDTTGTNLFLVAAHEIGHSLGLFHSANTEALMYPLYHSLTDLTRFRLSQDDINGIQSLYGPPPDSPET
T2 sequence (P22894 100-262 limits assumed): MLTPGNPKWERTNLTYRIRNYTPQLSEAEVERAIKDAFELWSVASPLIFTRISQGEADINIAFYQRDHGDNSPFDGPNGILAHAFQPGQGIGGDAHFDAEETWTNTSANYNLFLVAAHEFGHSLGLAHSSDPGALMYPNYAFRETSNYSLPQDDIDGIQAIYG

| IC50 (stromelysin (MMP-3)) [nM] | IC50 [1] [nM] | Compound |
| --- | --- | --- |
| 5 | 2 | O=C(O)[C@H](CCCNC(=O)N1CCCC1)NS(=O)(=O)c1ccc(-c2ccc(Cl)cc2)cc1 [Example 143] |
| 10 | 8 | COc1ccc(S(=O)(=O)NCCC[C@H](NS(=O)(=O)c2ccc(-c3ccc(Cl)cc3)cc2)C(=O)O)cc1 [Example 56] |
| 30 | 2 | O=C(O)C1CC1C(=O)NCCC[C@H](NS(=O)(=O)c1ccc(-c2ccc(Cl)cc2)cc1)C(=O)O (stereo partly shown) [Example 64] |
| 7 | 3 | O=C(CC(C(=O)O)c1ccccc1)NCCC[C@H](NS(=O)(=O)c1ccc(-c2ccc(Cl)cc2)cc1)C(=O)O (stereo partly shown) [Example 55] |
| 30 | 6 | C[C@H](NC(=O)OC(C)(C)C)C(=O)NCCC[C@H](NS(=O)(=O)c1ccc(-c2ccc(Cl)cc2)cc1)C(=O)O [Example 53] |
| 60 | 10 | COc1cccc(C(=O)NCCC[C@H](NS(=O)(=O)c2ccc(-c3ccc(Cl)cc3)cc2)C(=O)O)c1 [Example 152] |
| 40 | 20 | Cc1oncc1C(=O)NCCCC[C@@H](NS(=O)(=O)CCc1ccc(-c2ccccc2)cc1)C(=O)O [Example 168] |
| 5 | 2 | O=C(CCc1ccccc1)NCCC[C@H](NS(=O)(=O)c1ccc(-c2ccc(Cl)cc2)cc1)C(=O)O [Example 133] |
| 20 | 3 | O=C(NCCC[C@H](NS(=O)(=O)c1ccc(-c2ccc(Cl)cc2)cc1)C(=O)O)c1cccnc1 [Example 51] |
| 10 | 3 | O=C(Cc1cccs1)NCCC[C@H](NS(=O)(=O)c1ccc(-c2ccc(Cl)cc2)cc1)C(=O)O [Example 111] |
| 10 | 4 | NS(=O)(=O)c1ccc(C(=O)NCCC[C@H](NS(=O)(=O)c2ccc(-c3ccc(Cl)cc3)cc2)C(=O)O)cc1 [Example 142] |
| 10 | 7 | CN(C)c1ccc(C(=O)NCCC[C@H](NS(=O)(=O)c2ccc(-c3ccc(Cl)cc3)cc2)C(=O)O)cc1 [Example 136] |
| 10 | 10 | O=C(NCCC[C@H](NS(=O)(=O)c1ccc(-c2ccc(Cl)cc2)cc1)C(=O)O)c1ccc2[nH]nnc2c1 [Example 125] |
| 10 | 2 | O=C(NCCC[C@H](NS(=O)(=O)c1ccc(-c2ccc(Cl)cc2)cc1)C(=O)O)C1CCC1 [Example 66] |
| 40 | 8 | CC(C)(C)C(=O)NCCC[C@H](NS(=O)(=O)c1ccc(-c2ccc(Cl)cc2)cc1)C(=O)O [Example 57] |
| 10 | 3 | O=C(NCCC[C@@H](NS(=O)(=O)c1ccc(-c2ccc(Cl)cc2)cc1)C(=O)O)Nc1ccccc1 [Example 42] |
| 40 | 10 | O=C(NCCC[C@H](NS(=O)(=O)c1ccc(-c2ccc(Cl)cc2)cc1)C(=O)O)c1ccc(OC(F)(F)F)cc1 [Example 105] |
| 40 | 10 | O=C(/C=C/c1ccccc1)NCCC[C@H](NS(=O)(=O)c1ccc(-c2ccc(Cl)cc2)cc1)C(=O)O [Example 101] |
| 30 | 5 | O=C(NCCC[C@H](NS(=O)(=O)c1ccc(-c2ccc(Cl)cc2)cc1)C(=O)O)c1cccc(Cl)c1 [Example 91] |
| 5 | 3 | O=C(NCCC[C@H](NS(=O)(=O)c1ccc(-c2ccc(Cl)cc2)cc1)C(=O)O)c1ccc(Cl)cc1Cl [Example 115] |
| 30 | 10 | COc1ccccc1C(=O)NCCC[C@H](NS(=O)(=O)c1ccc(-c2ccc(Cl)cc2)cc1)C(=O)O [Example 151] |
| 10 | 5 | CN(CCC[C@H](NS(=O)(=O)c1ccc(-c2ccc(Cl)cc2)cc1)C(=O)O)Cc1ccccc1 [Example 145] |
| 20 | 4 | O=C(NCCC[C@H](NS(=O)(=O)c1ccc(-c2ccc(Cl)cc2)cc1)C(=O)O)c1cccc(C(F)(F)F)c1 [Example 130] |
